Converted amounts (≈) assume the structure as drawn.
Test system: Escherichia coli
Assay: Antimicrobial activity against Escherichia coli
Type: functional

| MIC [µg/mL] | SMILES |
| --- | --- |
| 7.75 to 35.4 (≈ 16.4 to 74.7 µM) | O=C1S/C(=C\c2ccc(Cl)cc2)C(=O)N1Cc1ccc(-c2ccccc2-c2nnn[nH]2)cc1 |
| 3.12 to 100 (≈ 7.41 to 237 µM) | Cc1ccc2c(c1)cc(C1CC(c3ccc(Cl)cc3)=NN1C(N)=S)c1nnnn12 (configuration not stated) |
| 3.12 to 100 (≈ 8.04 to 257 µM) | Cc1ccc2c(c1)cc(C1CC(c3ccccn3)=NN1C(N)=S)c1nnnn12 (configuration not stated) |
| > 320 | N#Cc1cn2c(NCCc3ccccc3)c(-c3cc4ccccc4n4nnnc34)nc2s1 |
| 7.75 to 35.4 (≈ 16.9 to 77.4 µM) | O=C1S/C(=C\c2ccc(F)cc2)C(=O)N1Cc1ccc(-c2ccccc2-c2nnn[nH]2)cc1 |
| > 320 | CC(C)(C)Nc1c(-c2cc3ccccc3n3nnnc23)nc2sc(C#N)cn12 |
| > 320 | c1ccc(CCNc2c(-c3cc4ccccc4n4nnnc34)nc3sccn23)cc1 |
| 7.75 to 35.4 (≈ 15.5 to 70.9 µM) | COc1cc(/C=C2\SC(=O)N(Cc3ccc(-c4ccccc4-c4nnn[nH]4)cc3)C2=O)cc(OC)c1 |
| > 320 | COc1ccc(Nc2c(-c3cc4ccccc4n4nnnc34)nc3sccn23)cc1 |
| 50 to 400 (≈ 142 to 1140 µM) | Cc1ccc2c(=O)c(OCc3nnn[nH]3)c(-c3ccc(F)cc3)oc2c1 |
| 7.75 to 35.4 (≈ 15.5 to 70.9 µM) | COc1ccc(/C=C2\SC(=O)N(Cc3ccc(-c4ccccc4-c4nnn[nH]4)cc3)C2=O)cc1OC |
| 22.4 (≈ 40 µM) | c1ccc(C(c2ccccc2)(c2ccccc2)n2nnnc2-c2ccccc2-c2ccc(CNn3cnnc3)cc2)cc1 |
| > 320 | COc1ccc(Nc2c(-c3cc4ccccc4n4nnnc34)nc3sc(C#N)cn23)cc1 |
| 7.75 to 35.4 (≈ 16.4 to 74.7 µM) | O=C1S/C(=C\c2ccccc2Cl)C(=O)N1Cc1ccc(-c2ccccc2-c2nnn[nH]2)cc1 |
| > 320 | CC(C)(C)Nc1c(-c2cc3ccccc3n3nnnc23)nc2sccn12 |
| > 320 | c1ccc2c(c1)cc(-c1nc3sccn3c1NC1CCCCC1)c1nnnn12 |
| 7.75 to 35.4 (≈ 15.5 to 70.9 µM) | COc1ccc(/C=C2\SC(=O)N(Cc3ccc(-c4ccccc4-c4nnn[nH]4)cc3)C2=O)c(OC)c1 |
| 125 to 1000 (≈ 584 to 4670 µM) | c1cc(-c2nnn[nH]2)cc(-c2nnn[nH]2)c1 |
| 50 to 400 (≈ 123 to 982 µM) | O=c1c(OCc2nnn[nH]2)c(-c2ccc(F)cc2)oc2cc(Cl)cc(Cl)c12 |
| 50 to 400 (≈ 142 to 1140 µM) | Cc1cccc2oc(-c3ccc(F)cc3)c(OCc3nnn[nH]3)c(=O)c12 |
| > 320 | N#Cc1cn2c(NC3CCCCC3)c(-c3cc4ccccc4n4nnnc34)nc2s1 |
| 50 to 400 (≈ 134 to 1070 µM) | O=c1c(OCc2nnn[nH]2)c(-c2ccc(F)cc2)oc2cc(Cl)ccc12 |
| > 320 | Fc1ccc2c(c1)sc1nc(-c3cc4ccccc4n4nnnc34)c(NCCc3ccccc3)n12 |
| 7.75 to 35.4 (≈ 17.6 to 80.6 µM) | O=C1S/C(=C\c2ccccc2)C(=O)N1Cc1ccc(-c2ccccc2-c2nnn[nH]2)cc1 |
| 7.75 to 35.4 (≈ 14.6 to 66.9 µM) | COc1cc(/C=C2\SC(=O)N(Cc3ccc(-c4ccccc4-c4nnn[nH]4)cc3)C2=O)cc(OC)c1OC |
| 125 (≈ 431 µM) | COc1cc(Cc2cnc(N)nc2N)cc(OC)c1OC [TRIMETHOPRIM] |

Test system: Pseudomonas aeruginosa
Assay: Antimicrobial activity against Pseudomonas aeruginosa
Type: functional

| MIC [µg/mL] | SMILES |
| --- | --- |
| 3.12 to 100 (≈ 7.41 to 237 µM) | Cc1ccc2c(c1)cc(C1CC(c3ccc(Cl)cc3)=NN1C(N)=S)c1nnnn12 (configuration not stated) |
| 3.12 to 100 (≈ 8.04 to 257 µM) | Cc1ccc2c(c1)cc(C1CC(c3ccccn3)=NN1C(N)=S)c1nnnn12 (configuration not stated) |
| > 320 | N#Cc1cn2c(NCCc3ccccc3)c(-c3cc4ccccc4n4nnnc34)nc2s1 |
| > 320 | CC(C)(C)Nc1c(-c2cc3ccccc3n3nnnc23)nc2sc(C#N)cn12 |
| > 320 | c1ccc(CCNc2c(-c3cc4ccccc4n4nnnc34)nc3sccn23)cc1 |
| > 320 | COc1ccc(Nc2c(-c3cc4ccccc4n4nnnc34)nc3sccn23)cc1 |
| 50 to 400 (≈ 142 to 1140 µM) | Cc1ccc2c(=O)c(OCc3nnn[nH]3)c(-c3ccc(F)cc3)oc2c1 |
| > 320 | COc1ccc(Nc2c(-c3cc4ccccc4n4nnnc34)nc3sc(C#N)cn23)cc1 |
| > 320 | CC(C)(C)Nc1c(-c2cc3ccccc3n3nnnc23)nc2sccn12 |
| > 320 | c1ccc2c(c1)cc(-c1nc3sccn3c1NC1CCCCC1)c1nnnn12 |
| 125 to 1000 (≈ 584 to 4670 µM) | c1cc(-c2nnn[nH]2)cc(-c2nnn[nH]2)c1 |
| 50 to 400 (≈ 123 to 982 µM) | O=c1c(OCc2nnn[nH]2)c(-c2ccc(F)cc2)oc2cc(Cl)cc(Cl)c12 |
| 50 to 400 (≈ 142 to 1140 µM) | Cc1cccc2oc(-c3ccc(F)cc3)c(OCc3nnn[nH]3)c(=O)c12 |
| > 320 | N#Cc1cn2c(NC3CCCCC3)c(-c3cc4ccccc4n4nnnc34)nc2s1 |
| 50 to 400 (≈ 134 to 1070 µM) | O=c1c(OCc2nnn[nH]2)c(-c2ccc(F)cc2)oc2cc(Cl)ccc12 |
| > 320 | Fc1ccc2c(c1)sc1nc(-c3cc4ccccc4n4nnnc34)c(NCCc3ccccc3)n12 |
| 500 (≈ 1720 µM) | COc1cc(Cc2cnc(N)nc2N)cc(OC)c1OC [TRIMETHOPRIM] |

Test system: Staphylococcus aureus
Assay: Antimicrobial activity against Staphylococcus aureus
Type: functional

| MIC [µg/mL] | SMILES |
| --- | --- |
| 3.12 to 100 (≈ 7.41 to 237 µM) | Cc1ccc2c(c1)cc(C1CC(c3ccc(Cl)cc3)=NN1C(N)=S)c1nnnn12 (configuration not stated) |
| 3.12 to 100 (≈ 8.04 to 257 µM) | Cc1ccc2c(c1)cc(C1CC(c3ccccn3)=NN1C(N)=S)c1nnnn12 (configuration not stated) |
| > 320 | N#Cc1cn2c(NCCc3ccccc3)c(-c3cc4ccccc4n4nnnc34)nc2s1 |
| > 320 | CC(C)(C)Nc1c(-c2cc3ccccc3n3nnnc23)nc2sc(C#N)cn12 |
| > 320 | c1ccc(CCNc2c(-c3cc4ccccc4n4nnnc34)nc3sccn23)cc1 |
| > 320 | COc1ccc(Nc2c(-c3cc4ccccc4n4nnnc34)nc3sccn23)cc1 |
| 50 to 400 (≈ 142 to 1140 µM) | Cc1ccc2c(=O)c(OCc3nnn[nH]3)c(-c3ccc(F)cc3)oc2c1 |
| > 320 | COc1ccc(Nc2c(-c3cc4ccccc4n4nnnc34)nc3sc(C#N)cn23)cc1 |
| > 320 | CC(C)(C)Nc1c(-c2cc3ccccc3n3nnnc23)nc2sccn12 |
| > 320 | c1ccc2c(c1)cc(-c1nc3sccn3c1NC1CCCCC1)c1nnnn12 |
| 125 to 1000 (≈ 584 to 4670 µM) | c1cc(-c2nnn[nH]2)cc(-c2nnn[nH]2)c1 |
| 50 to 400 (≈ 123 to 982 µM) | O=c1c(OCc2nnn[nH]2)c(-c2ccc(F)cc2)oc2cc(Cl)cc(Cl)c12 |
| 50 to 400 (≈ 142 to 1140 µM) | Cc1cccc2oc(-c3ccc(F)cc3)c(OCc3nnn[nH]3)c(=O)c12 |
| > 320 | N#Cc1cn2c(NC3CCCCC3)c(-c3cc4ccccc4n4nnnc34)nc2s1 |
| 50 to 400 (≈ 134 to 1070 µM) | O=c1c(OCc2nnn[nH]2)c(-c2ccc(F)cc2)oc2cc(Cl)ccc12 |
| > 320 | Fc1ccc2c(c1)sc1nc(-c3cc4ccccc4n4nnnc34)c(NCCc3ccccc3)n12 |
| 250 (≈ 861 µM) | COc1cc(Cc2cnc(N)nc2N)cc(OC)c1OC [TRIMETHOPRIM] |

Test system: Bacillus subtilis
Assay: Antimicrobial activity against Bacillus subtilis
Type: functional

| MIC [µg/mL] | SMILES |
| --- | --- |
| 7.75 to 35.4 (≈ 16.4 to 74.7 µM) | O=C1S/C(=C\c2ccc(Cl)cc2)C(=O)N1Cc1ccc(-c2ccccc2-c2nnn[nH]2)cc1 |
| 7.75 to 35.4 (≈ 16.9 to 77.4 µM) | O=C1S/C(=C\c2ccc(F)cc2)C(=O)N1Cc1ccc(-c2ccccc2-c2nnn[nH]2)cc1 |
| 7.75 to 35.4 (≈ 15.5 to 70.9 µM) | COc1cc(/C=C2\SC(=O)N(Cc3ccc(-c4ccccc4-c4nnn[nH]4)cc3)C2=O)cc(OC)c1 |
| 50 to 400 (≈ 142 to 1140 µM) | Cc1ccc2c(=O)c(OCc3nnn[nH]3)c(-c3ccc(F)cc3)oc2c1 |
| 7.75 to 35.4 (≈ 15.5 to 70.9 µM) | COc1ccc(/C=C2\SC(=O)N(Cc3ccc(-c4ccccc4-c4nnn[nH]4)cc3)C2=O)cc1OC |
| 24.8 (≈ 44.3 µM) | c1ccc(C(c2ccccc2)(c2ccccc2)n2nnnc2-c2ccccc2-c2ccc(CNn3cnnc3)cc2)cc1 |
| 7.75 to 35.4 (≈ 16.4 to 74.7 µM) | O=C1S/C(=C\c2ccccc2Cl)C(=O)N1Cc1ccc(-c2ccccc2-c2nnn[nH]2)cc1 |
| 7.75 to 35.4 (≈ 15.5 to 70.9 µM) | COc1ccc(/C=C2\SC(=O)N(Cc3ccc(-c4ccccc4-c4nnn[nH]4)cc3)C2=O)c(OC)c1 |
| 50 to 400 (≈ 123 to 982 µM) | O=c1c(OCc2nnn[nH]2)c(-c2ccc(F)cc2)oc2cc(Cl)cc(Cl)c12 |
| 50 to 400 (≈ 142 to 1140 µM) | Cc1cccc2oc(-c3ccc(F)cc3)c(OCc3nnn[nH]3)c(=O)c12 |
| 50 to 400 (≈ 134 to 1070 µM) | O=c1c(OCc2nnn[nH]2)c(-c2ccc(F)cc2)oc2cc(Cl)ccc12 |
| 7.75 to 35.4 (≈ 17.6 to 80.6 µM) | O=C1S/C(=C\c2ccccc2)C(=O)N1Cc1ccc(-c2ccccc2-c2nnn[nH]2)cc1 |
| 7.75 to 35.4 (≈ 14.6 to 66.9 µM) | COc1cc(/C=C2\SC(=O)N(Cc3ccc(-c4ccccc4-c4nnn[nH]4)cc3)C2=O)cc(OC)c1OC |

Test system: Candida albicans
Assay: Antifungal activity against Candida albicans
Type: functional

| MIC [µg/mL] | SMILES |
| --- | --- |
| 3.12 to 100 (≈ 7.41 to 237 µM) | Cc1ccc2c(c1)cc(C1CC(c3ccc(Cl)cc3)=NN1C(N)=S)c1nnnn12 (configuration not stated) |
| 3.12 to 100 (≈ 8.04 to 257 µM) | Cc1ccc2c(c1)cc(C1CC(c3ccccn3)=NN1C(N)=S)c1nnnn12 (configuration not stated) |

Test system: Aspergillus niger
Assay: Antifungal activity against Aspergillus niger
Type: functional

| MIC [µg/mL] | SMILES |
| --- | --- |
| 3.12 to 100 (≈ 7.41 to 237 µM) | Cc1ccc2c(c1)cc(C1CC(c3ccc(Cl)cc3)=NN1C(N)=S)c1nnnn12 (configuration not stated) |
| 3.12 to 100 (≈ 8.04 to 257 µM) | Cc1ccc2c(c1)cc(C1CC(c3ccccn3)=NN1C(N)=S)c1nnnn12 (configuration not stated) |

Reference: ChEMBL document CHEMBL4342421, “Current scenario of tetrazole hybrids for antibacterial activity” (Eur J Med Chem, 2019)
